Series [1] is described as follows: dissolution in phosphate buffered saline (PBS) solution (Example 3). Type of series: physicochemical. As to conditions: 35 ml PBS solution. The method, then:
For a comparative dissolution study, Control E, consisting of 35 mg of crystalline Drug 2 was prepared. The dissolution of drug was studied by placing two of the trilayer tablets and Control E each in 35 ml of a phosphate buffered saline (PBS) solution composed of 6 mM KH2PO4, 5 mM NaOH, 60 mM KC1 and 30 mM NaCl. The data for the trilayer tablet is the average of the values for the two tablets tested.

A further series can be described thus: physchem. As to conditions: water.
Series [2] is described as follows: dissolution in phosphate-buffered solution pH 7.2 (Example 7). The class given is physicochemical. As to conditions: 50 ml phosphate-buffered solution pH 7.2. The method, then:
For a comparative dissolution study, Control G, consisting of 100 mg of crystalline Drug 2 was prepared. The dissolution of drug was studied by placing one each of the bi-layer tablet and Control G preparation containing an equal amount of Drug 2 in 50 ml of the phosphate-buffered solution of Example 3 (pH 7.2, osmotic pressure 5.3 atm) to simulate an intestinal environment of use.

Series [3] is described as follows: dissolution in MFD solution (Example 8). Type of series: physicochemical. As to conditions: 40 ml MFD solution. On the procedure:
For a comparative dissolution study, Control H, consisting of 111.4 mg of the crystalline drug, was used. The dissolution of drug was studied by placing the bilayer tablet and Control H each in 40 ml of MFD solution.

Series [4] can be described thus: dissolution in MFD solution (Example 6). The class given is physicochemical. The note with it: 50 ml MFD solution. The method, then:
A Model Fasted Duodenum (MFD) solution was prepared to mimic the chemical environment of the small intestine, the solution comprising a phosphate-buffered saline solution containing 14.7 mM sodium taurocholic acid and 2.8 mM of 1-palmitoyl-2-oleyl-sn-glycero-3-phosphocholine with a pH of 6.5.
The data for the tri-layer tablet is the average of the values for the two tablets tested.

Converted amounts (≈) assume the structure as drawn.

The solubility is the concentration that dissolves in the medium under given conditions. A low value points to little dissolved substance. On to `O=C(N[C@@H](Cc1ccccc1)[C@@H](O)C(=O)N1C[C@@H](O)[C@@H](O)C1)c1cc2cc(Cl)ccc2[nH]1` [Drug 2], for which the MDC in series [1] is recorded as 171 µg/mL; in series [2], 77 µg/mL. Moreover, the “[Drug]” value in series [1] (time 0.3 hr) came to 99 µg/mL; in series [1] (time 1.5 hr), 148 µg/mL; in series [1] (time 2.0 hr) it was 165 µg/mL; in series [1] (time 3.0 hr), 137 µg/mL; in series [1] (time 4.0 hr), 142 µg/mL; in series [1] (time 12.0 hr), 157 µg/mL. Besides, the “[Drug]” value in series [1] (time 20.0 hr) is listed as 171 µg/mL; in series [2] (time 0 hr), 0 µg/mL; in series [2] (time 1 hr), 59 µg/mL; in series [2] (time 2 hr), 72 µg/mL; in series [2] (time 4 hr), 72 µg/mL; in series [2] (time 8 hr), 77 µg/mL. The “[Drug]” value in series [2] (time 12 hr) amounted to 71 µg/mL; in series [2] (time 18 hr) it was 71 µg/mL; in series [2] (time 24 hr), 75 µg/mL. The compound also had a solubility in “physchem” of 80 µg/mL (≈ 175 µM).

For orientation: AUC means concentration integrated over time. Higher therefore signals high exposure. In series [3], `CN[C@H]1CC[C@@H](c2ccc(Cl)c(Cl)c2)c2ccccc21` [sertraline] returned an MDC of 401 µg/mL. For the same compound, the “[Drug]” value in series [3] (time 0 hr) stood at 0 µg/mL; in series [3] (time 0.2 hr), 278 µg/mL; in series [3] (time 0.3 hr) it was 401 µg/mL; in series [3] (time 0.7 hr), 341 µg/mL; in series [3] (time 1.5 hr), 217 µg/mL; in series [3] (time 2 hr), 188 µg/mL. Moreover, the “[Drug]” value came to 168 µg/mL in series [3] (time 3 hr); 152 µg/mL in series [3] (time 4 hr); 160 µg/mL in series [3] (time 6 hr); 137 µg/mL in series [3] (time 10 hr); 135 µg/mL in series [3] (time 14 hr); 191 µg/mL in series [3] (time 24 hr). For the same compound, the AUC is 0 µg·min/mL in series [3] (up to 0 hr); 830 µg·min/mL in series [3] (up to 0.2 hr); 4,230 min·µg/mL in series [3] (up to 0.3 hr); 11,650 min·µg/mL in series [3] (up to 0.7 hr); 25,610 min·µg/mL in series [3] (up to 1.5 hr); 31,700 min·µg/mL in series [3] (up to 2 hr). Further, the AUC in series [3] (up to 3 hr) is listed as 42,400 min·µg/mL; in series [3] (up to 4 hr), 52,000 min·µg/mL; in series [3] (up to 6 hr), 70,640 min·µg/mL; in series [3] (up to 10 hr), 106,200 min·µg/mL; in series [3] (up to 14 hr), 122,500 min·µg/mL.

As to “[R-(R*,S*)]-5-chloro-N-[2-hydroxy-3-[methoxymethylamino)-3-1-(phenylmethyl)propyl]propyl]-1H-indole-2-carboxamide [Drug 1]”, in series [4], the MDC was found to be 16 µg/mL. Besides, the “[Drug]” value in series [4] (time 0 hr) was 0 µg/mL; in series [4] (time 2 hr), 13 µg/mL; in series [4] (time 4 hr), 16 µg/mL; in series [4] (time 8 hr), 13 µg/mL; in series [4] (time 12 hr) it was 15 µg/mL; in series [4] (time 20 hr) it was 12 µg/mL. For the same compound, the “[Drug]” value in series [4] (time 24 hr) came to 11 µg/mL.

These data come from patent EP1027888B1, “Osmotic system for delivery of solid amorphous dispersions of drugs” (Pfizer Products Inc., priority 1999, dated 2000).
